Data on 16 molecules can be found in US8906946B2, “TRPM8 receptor antagonists” (Dompe' S.p.A., priority 2011, dated 2014).

For test [1], the target named is T1, human TRPM8 (Homo sapiens, UniProt Q7Z2W7). Briefly: High-throughput FLIPR TETRA calcium fluorescence assay for TRPM8 antagonists in HEK293/hTRPM8 cells. Details: expressed in transfected cells. It is filed as cell-based. To be noted: agonist Cooling Agent 10 at EC80, Ca2+ fluorescence. From the text:
A functional cell-based assay for the identification of TRPM8 receptor antagonists, optimised to allow high throughput screening at FLIPR^TETRA, was developed in HEK293 cells by stable pure clone selection and functional characterization with a fluorescent calcium sensitive dye.
TRPM8 was cloned into the multiple clonig site of pcDNA3 mammalian expression vector; the obtained construct pcDNA3/hTRPM8 was fully sequence verified and used for the transfection of HEK293 cell line. HEK293 cells stably transfected with TRPM8 gene were maintained in Minimum essential medium. The cells were transfected with the pcDNA3/hTRPM8 vector by electroporation and then selected with medium containing 0.8 mg/ml G418 for 10-15 days.
The following commercial compounds were used as ligands: • Activator: Cooling Agent 10 (Takasago CAS N. 87061-04-9) • Blocker: Capsazepine (SIGMA cat #D—5879)
The experimental activities were performed using FLIPR^TETRA instruments.
HEK293 cells stably transfected with TRPM8 gene were maintained in Minimum essential medium.
The TRPM8 cell line was analysed for the response to a library of compounds using a Ca^2+ mobilization-dependent fluorescence signal in 384 wells microtiter plate format. The analysis was performed using the FLIPR^TETRA (MDC) with the ICCD Camera.
The execution of the assay involved the use of three microtiter plates:
1. Assay plate, containing cells loaded with dye and prepared as follows:
Cells were seeded at 15000 c/well in Poly-D-Lysine coated 384 wells Microtiter Plates in complete medium (25 μl/well).
24 h after seeding, the cell plates were washed with Tyrode assay buffer by the Microplate Washer and 10 μL of Tyrode assay buffer was left in each well.
Cells were then loaded with 10 μL/well of the Fluo-4 NW dye solution by CyBi®-Well pipettor. Each bottle of Fluo4-NW dye (Molecular Probes cat. #F36206, component A) was re-suspended in 8 mL of Tyrode assay buffer and supplemented with 100 μL of water-soluble probenecid (MolecularProbes cat.#F36206, component B).
Dye loaded cell plates were incubated for 1 h at room temperature.
2. Compound Dilution Plate (FIG. 1), containing diluted test compounds, formulated as follows: • Column 1: wells containing Assay Buffer plus DMSO 0.5% final • Column 2: wells alternating Max Signal Control in first injection (Maximum Response: Cooling Agent 10 at EC100, 100 μM) and Min Signal Control in first injection (Assay buffer plus 0.5% DMSO final); • Columns 3-22: wells containing Assay Buffer plus 0.5% DMSO final. To these wells the compounds to be tested were added at 3× concentration. • Column 23: alternating wells of Max Signal Control in second injection (Assay buffer) and Min Signal Control in second injection (Antagonist Capsazepine IC100, 50 μM) in Assay buffer plus 0.5% DMSO final; • Column 24: wells containing Capsazepine (Antagonist) at 8 concentrations in duplicate at final concentrations of […] in Assay buffer plus 0.5% DMSO final.
3. Activator Plate (FIG. 2), containing agonist Cooling Agent 10 at EC80, formulated as follows: • Column 1: Cooling Agent 10 (Agonist) at 8 concentrations dose response in duplicate at final concentrations of […] in Assay buffer; • Columns 2-24: Cooling Agent 10 (Agonist) at EC80 (3 fold concentrated, 20 μM final) in Assay buffer.
The test was carried out according to a procedure comprising the following steps: • 1. The samples contained in the wells of the Compound Plate were added to the corresponding wells of the Assay Plate by the FLIPR^TETRA, thus resulting in the addition in Columns 3-22 of the test compounds at 3× concentration to the cells of the assay plates. No mixing was performed in the assay wells and the signal of the emitted fluorescence was recorded for 300 seconds. • 2.

Test [2] concerns the target T1, human TRPM8. In words: FLIPR384 capsazepine antagonist activity on menthol agonist response in selected TRPM8 clone. It counts as cell-based. On the set-up: expressed in transfected cells. The following applies: FLIPR384, antagonist from 100 nM to 316 μM. On the procedure: The experimental activities were performed using FLIPR instruments.
Patch clamp recordings were also obtained in voltage-clamp configuration on HEK/TRPM8 clones in order to verify the receptor pharmacology and to determine the agonist dose-response curve and EC50 value. HEK293 cells were […] having 1.5-2.5 MΩ resistance were used to record currents following drug application. […] No menthol-induced currents were recorded in non transfected HEK293 cells.

Bounds are passed on as bounds.

T1 sequence (Q7Z2W7 whole entry): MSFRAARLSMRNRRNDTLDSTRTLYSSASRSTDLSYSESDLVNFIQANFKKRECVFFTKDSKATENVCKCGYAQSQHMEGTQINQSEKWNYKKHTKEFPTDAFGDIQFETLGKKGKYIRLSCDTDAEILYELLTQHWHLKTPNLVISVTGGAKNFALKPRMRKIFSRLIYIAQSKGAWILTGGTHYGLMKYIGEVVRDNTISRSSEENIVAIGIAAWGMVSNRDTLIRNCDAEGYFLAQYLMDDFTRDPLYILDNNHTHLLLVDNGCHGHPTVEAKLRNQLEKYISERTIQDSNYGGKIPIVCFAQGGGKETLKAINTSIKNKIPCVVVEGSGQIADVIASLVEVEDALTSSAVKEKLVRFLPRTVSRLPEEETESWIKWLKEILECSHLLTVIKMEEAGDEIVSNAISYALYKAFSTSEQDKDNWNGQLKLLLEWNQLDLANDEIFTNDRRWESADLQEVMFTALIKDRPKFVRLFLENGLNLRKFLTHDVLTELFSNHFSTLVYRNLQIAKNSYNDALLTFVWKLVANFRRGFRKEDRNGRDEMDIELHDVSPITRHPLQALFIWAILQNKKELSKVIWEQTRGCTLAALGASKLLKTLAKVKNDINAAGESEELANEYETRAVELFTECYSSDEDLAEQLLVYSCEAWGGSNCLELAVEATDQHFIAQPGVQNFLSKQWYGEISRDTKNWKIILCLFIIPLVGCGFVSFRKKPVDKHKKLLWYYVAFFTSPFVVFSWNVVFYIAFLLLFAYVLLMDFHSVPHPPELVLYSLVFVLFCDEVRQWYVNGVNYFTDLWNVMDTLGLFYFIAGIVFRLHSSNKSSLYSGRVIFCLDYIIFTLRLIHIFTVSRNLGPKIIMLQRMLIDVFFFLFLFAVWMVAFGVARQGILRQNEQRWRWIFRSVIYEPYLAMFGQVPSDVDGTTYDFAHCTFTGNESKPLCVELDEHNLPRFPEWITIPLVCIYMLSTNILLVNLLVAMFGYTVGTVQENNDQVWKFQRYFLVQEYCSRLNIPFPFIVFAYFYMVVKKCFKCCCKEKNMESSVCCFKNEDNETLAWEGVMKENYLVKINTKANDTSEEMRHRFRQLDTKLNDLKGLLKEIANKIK

For `Clc1c(OCCNCc2cccs2)ccc2ccccc12` [Compound 5, 2-[(1-chloronaphthalen-2-yl)oxy]-N-(thiophen-2-ylmethyl)ethanaminium], the IC50 on human TRPM8 [1] is under 10 µM.

For `Clc1ccc(CNCCCc2ccc3ccccc3c2Cl)s1` [Compound 35, 3-(1-chloronaphthalen-2-yl)-N-[(5-chlorothiophen-2-yl)methyl]propan-1-amine], the IC50 on human TRPM8 [1] was under 10 µM.

Turning to `Clc1ccc(CNCCCc2ccc3ccccc3c2Cl)o1` [Compound 34, N-[(5-chlorofuran-2-yl)methyl]-3-(1-chloronaphthalen-2-yl)propan-1-amine], the IC50 on human TRPM8 [1] is under 10 µM.

With `O=S(=O)(CCNCc1ccco1)c1ccc2ccccc2c1Cl` [Compound 25, 2-[(1-chloronaphthalen-2-yl)sulfonyl]-N-(furan-2-ylmethyl)ethanamine], the half-maximal inhibitory concentration (IC50) on human TRPM8 [1] is under 10 µM.

At human TRPM8 [2], `Oc1cc2c(cc1O)CN(C(=S)NCCc1ccc(Cl)cc1)CCC2` [capsazepine, Capsazepine] yielded an IC50 of 20 µM.

`Clc1c(OCCNCc2ccccn2)ccc2ccccc12` [Compound 6, 2-[(1-chloronaphthalen-2-yl)oxy]-N-(pyridin-2-ylmethyl)ethanaminium]: the IC50 at human TRPM8 [1] is under 10 µM.

Consider `CC(C)(COc1ccc2ccccc2c1Cl)NCc1ccccn1` [Compound 13, 1-[(1-chloronaphthalen-2-yl)oxy]-2-methyl-N-(pyridin-2-ylmethyl)propan-2-amine], for which, at human TRPM8 [1], the IC50 was under 10 µM.

Regarding `N#Cc1ccc2c(Cl)c(OCCNCc3cccs3)ccc2c1` [Compound 60, 5-chloro-6-{2-[(thiophen-2-ylmethyl)amino]ethoxy}naphthalene-2-carbonitrile], the IC50 at human TRPM8 [1] is under 10 µM.

For the molecule `Fc1c(OCCNCc2ccco2)ccc2ccccc12` [Compound 48, 2-[(1-fluoronaphthalen-2-yl)oxy]-N-(furan-2-ylmethyl)ethanamine], the IC50 on human TRPM8 [1] is under 10 µM.

Take `Fc1c(OCCNCc2cccs2)ccc2ccccc12` [Compound 52, 2-[(1-fluoronaphthalen-2-yl)oxy]-N-(thiophen-2-ylmethyl)ethanamine]: on human TRPM8 [1], the half-maximal inhibitory concentration (IC50) is under 10 µM.

For the molecule `Cc1ccc(CNCCCc2ccc3ccccc3c2Cl)o1` [Compound 33, 3-(1-chloronaphthalen-2-yl)-N-[(5-methylfuran-2-yl)methyl]propan-1-amine], the IC50 on human TRPM8 [1] is under 10 µM.

In the case of `Clc1c(CCCNCc2ccco2)ccc2ccccc12` [Compound 32, 3-(1-chloronaphthalen-2-yl)-N-(furan-2-ylmethyl)propan-1-amine], the IC50 at human TRPM8 [1] was under 10 µM.

`Fc1c(OCCNCc2ccccn2)ccc2ccccc12` [Compound 53, 2-[(1-fluoronaphthalen-2-yl)oxy]-N-(pyridin-2-ylmethyl)ethanamine]: on human TRPM8 [1], the IC50 is under 10 µM.

As to `CC(C)(COc1ccc2ccccc2c1Cl)NCc1ccco1` [Compound 8, 1-[(1-chloronaphthalen-2-yl)oxy]-N-(furan-2-ylmethyl)-2-methylpropan-2-amine], the IC50 at human TRPM8 [1] was under 10 µM.

As for `N#Cc1ccc2c(Cl)c(OCCNCc3ccccn3)ccc2c1` [Compound 55, 5-chloro-6-{2-[(pyridin-2-ylmethyl)amino]ethoxy}naphthalene-2-carbonitrile], the IC50 at human TRPM8 [1] is under 10 µM.

Turning to `Cn1cccc1CNC(C)(C)COc1ccc2ccccc2c1Cl` [Compound 14, 1-[(1-chloronaphthalen-2-yl)oxy]-2-methyl-N-[(1-methyl-1H-pyrrol-2-yl)methyl]propan-2-amine], the IC50 at human TRPM8 [1] was under 10 µM.
